Measurements as given in BindingDB's records for doi:10.1016/s0960-894x(00)00136-0 (Iowa State University, 2000).

Assays:
[1] = target: Endothelin receptor type B (rabbit); experiment: Tested for binding affinity towards rabbit Endothelin B receptor
[2] = target: Endothelin-1 receptor (rabbit); experiment: Tested for binding affinity towards rabbit Endothelin A receptor

- IC50 [1]: 70 µM
- IC50 [2]: 50 µM
SMILES: C/C=C/C=C/C(=O)O[C@@H]1C=C2COC(O)[C@]2(O)[C@@]2(C)CCCC(C)(C)C12 (stereo partly drawn) [(2E,4E)-Hexa-2,4-dienoic acid (5R,9aS,9bS)-1,9b-dihydroxy-6,6,9a-trimethyl-1,3,5,5a,6,7,8,9,9a,9b-decahydro-naphtho[1,2-c]furan-5-yl ester]
